# Source: US20210382058A1, “PATIENT SELECTION FOR TREATMENT OF MYC POSITIVE CANCERS WITH INDENOISOQUINOLINES” (Purdue Research Foundation, priority 2020, published 2021)
# Where two headings read alike, the source gives them in different places.
# Columns and labels:
# [1] = test system: NCI-60 cancer cell lines; experiment: NCI-60 cancer cell line drug screen (GI50, MGM); assay type: cell-based, human; details: Homo sapiens; for GI50: read-out: Antiproliferative Activities [GI50 (μM)]
# Description: Cancer cells were incubated with the test compounds at five concentrations ranging from 100 μM to 10 nM for 48 h. […] The approximate average of GI50 values across the entire panel of NCI-60 cancer cell lines for each compound was recorded as the MGM value.
# [2] = target: T1, human topoisomerase I (Homo sapiens, UniProt P11387); details: relative topoisomerase I inhibition levels, previously determined, six levels (0 - 5, +++++ = 5); cited from earlier work
# T1 sequence (P11387 1-765): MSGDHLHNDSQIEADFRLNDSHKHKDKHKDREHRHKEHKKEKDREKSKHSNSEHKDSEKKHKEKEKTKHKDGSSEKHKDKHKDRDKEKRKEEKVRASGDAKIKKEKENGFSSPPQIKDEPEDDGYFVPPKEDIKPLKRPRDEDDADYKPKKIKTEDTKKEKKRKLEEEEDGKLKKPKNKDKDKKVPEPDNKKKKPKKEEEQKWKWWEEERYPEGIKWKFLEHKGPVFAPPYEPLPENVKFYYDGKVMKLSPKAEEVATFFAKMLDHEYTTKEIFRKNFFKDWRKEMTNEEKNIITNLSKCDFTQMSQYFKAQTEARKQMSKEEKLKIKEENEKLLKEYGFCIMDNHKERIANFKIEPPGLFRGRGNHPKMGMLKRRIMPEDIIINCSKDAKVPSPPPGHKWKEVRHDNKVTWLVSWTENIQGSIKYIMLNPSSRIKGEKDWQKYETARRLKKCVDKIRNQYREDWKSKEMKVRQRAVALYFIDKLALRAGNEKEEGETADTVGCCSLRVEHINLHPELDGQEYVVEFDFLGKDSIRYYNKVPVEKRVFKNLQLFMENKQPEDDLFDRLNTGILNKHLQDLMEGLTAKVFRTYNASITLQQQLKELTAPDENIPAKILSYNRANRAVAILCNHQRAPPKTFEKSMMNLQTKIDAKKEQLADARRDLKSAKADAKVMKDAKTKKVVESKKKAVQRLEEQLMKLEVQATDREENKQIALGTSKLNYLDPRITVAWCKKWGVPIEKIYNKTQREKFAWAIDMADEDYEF
smiles,measurement,setting,value
COc1cnc2c(c1)C(=O)c1c-2n(CCCNCCN2CCOCC2)c(=O)c2cc([N+](=O)[O-])ccc12 [Compound 11],GI50,"[1]; 786-0, Renal Cancer, 786-0",0.22 µM
same,GI50,"[1]; A549, Non-Small Cell Lung Cancer, A549/ATCC",0.12 µM
same,GI50,"[1]; ACHN, Renal Cancer, ACHN",0.04 µM
same,GI50,"[1]; BT-549, Breast Cancer, BT-549",0.29 µM
same,GI50,"[1]; CAKI-1, Renal Cancer, CAKI-1",0.04 µM
same,GI50,"[1]; CCRF-CEM, Leukemia, CCRF-CEM",0.05 µM
same,GI50,"[1]; COLO 205, Colon Cancer, COLO 205",0.3 µM
same,GI50,"[1]; DU-145, Prostate Cancer, DU-145",0.06 µM
same,GI50,"[1]; EKVX, Non-Small Cell Lung Cancer, EKVX",0.45 µM
same,GI50,"[1]; HCC 2998, Colon Cancer, HCC-2998",0.3 µM
same,GI50,"[1]; HCT-15, Colon Cancer, HCT-15",0.3 µM
same,GI50,"[1]; HL-60, Leukemia, HL-60(TB)",0.1 µM
same,GI50,"[1]; HOP-92, Non-Small Cell Lung Cancer, HOP-92",0.87 µM
same,GI50,"[1]; HT-29, Colon Cancer, HT29",0.15 µM
same,GI50,"[1]; Hs-578T, Breast Cancer, HS 578T",3.85 µM
same,GI50,"[1]; IGROV-1, Ovarian Cancer, IGROV1",0.42 µM
same,GI50,"[1]; K562, Leukemia, K-562",0.23 µM
same,GI50,"[1]; KM12, Colon Cancer, KM12",0.4 µM
same,GI50,"[1]; LOX IMVI, Melanoma, LOX IMVI",0.04 µM
same,GI50,"[1]; Leukemia, SR",0.02 µM
same,GI50,"[1]; MCF7, Breast Cancer, MCF7",0.03 µM
same,GI50,"[1]; MDA-MB-231, Breast Cancer, MDA-MB-231/ATCC",0.63 µM
same,GI50,"[1]; MDA-MB-435, Melanoma, MDA-MB-435",0.42 µM
same,GI50,"[1]; MDA-MB-468, Breast Cancer, MDA-MB-468",0.12 µM
same,GI50,"[1]; MOLT-4, Leukemia, MOLT-4",0.03 µM
same,GI50,"[1]; Malme-3M, Melanoma, MALME-3M",0.34 µM
same,GI50,"[1]; Melanoma, M14",0.07 µM
same,GI50,"[1]; NCI-H23, Non-Small Cell Lung Cancer, NCI-H23",0.15 µM
same,GI50,"[1]; NCI-H226, Non-Small Cell Lung Cancer, NCI-H226",0.17 µM
same,GI50,"[1]; NCI-H322M, Non-Small Cell Lung Cancer, NCI-H322M",0.28 µM
same,GI50,"[1]; NCI-H460, Non-Small Cell Lung Cancer, NCI-H460",0.04 µM
same,GI50,"[1]; NCI-H522, Non-Small Cell Lung Cancer, NCI-H522",0.08 µM
same,GI50,"[1]; OVCAR-3, Ovarian Cancer, OVCAR-3",0.32 µM
same,GI50,"[1]; OVCAR-4, Ovarian Cancer, OVCAR-4",0.33 µM
same,GI50,"[1]; OVCAR-5, Ovarian Cancer, OVCAR-5",0.45 µM
same,GI50,"[1]; OVCAR-8, Ovarian Cancer, OVCAR-8",0.17 µM
same,GI50,"[1]; Ovarian Cancer, NCl/ADR-RES",0.13 µM
same,GI50,"[1]; Prostate Cancer, PC-3",0.57 µM
same,GI50,"[1]; RPMI-8226, Leukemia, RPMI-8226",0.17 µM
same,GI50,"[1]; RXF 393, Renal Cancer, RXF 393",0.39 µM
same,GI50,"[1]; Renal Cancer, U0-31",0.05 µM
same,GI50,"[1]; SF-268, CNS Cancer, SF-268",0.08 µM
same,GI50,"[1]; SF-295, CNS Cancer, SF-295",0.07 µM
same,GI50,"[1]; SF-539, CNS Cancer, SF-539",0.31 µM
same,GI50,"[1]; SK-MEL-2, Melanoma, SK-MEL-2",1.59 µM
same,GI50,"[1]; SK-MEL-5, Melanoma, SK-MEL-5",0.26 µM
same,GI50,"[1]; SK-MEL-28, Melanoma, SK-MEL-28",1.13 µM
same,GI50,"[1]; SK-OV-3, Ovarian Cancer, SK-OV-3",0.14 µM
same,GI50,"[1]; SNB-19, CNS Cancer, SNB-19",0.11 µM
same,GI50,"[1]; SNB-75, CNS Cancer, SNB-75",0.27 µM
same,GI50,"[1]; SW-620, Colon Cancer, SW-620",0.13 µM
same,GI50,"[1]; T47D, Breast Cancer, T-47D",0.11 µM
same,GI50,"[1]; TK-10, Renal Cancer, TK-10",0.73 µM
same,GI50,"[1]; U-251, CNS Cancer, U251",0.08 µM
same,GI50,"[1]; UACC-62, Melanoma, UACC-62",0.04 µM
same,GI50,"[1]; UACC-257, Melanoma, UACC-257",0.59 µM
same,mean GI50 across NCI-60 panel (MGM),[1]; average of GI50 values across the entire panel of NCI-60 cancer cell lines,177 nM
same,Top1 Inhibiton,[2],"+++ (strong inhibition, +++, MYC expression inhibited at 0.5 to 1.0 μM)"
